# Reference: patent EP2226073A1, “Topical pharmaceutical composition comprising an antiseptic and arginine for wound healing” (EURO-CELTIQUE S.A., priority 2009, dated 2010)
# Test system: Human ciliated epithelium cells
# Procedure: Human ciliated epithelium cells were analyzed by an in vitro method which allows for determining ciliary activity or ciliary vibration. The corresponding cells were exposed and incubated with 100 µl test substance at a temperature of 37°C. After an incubation period of 5 min ciliary vibration was measured.
# By using this in vitro method, a nutrient solution (Dulbeco) as a standard, a 0.2% chlorohexidine solution (a common antiseptic agent), conventional polyvidone iodine solutions (Betaisodona) of different concentrations (5.0%, 2.5%, and 1.25% PVP-iodine), and a liposomal solution containing 4.5% PVP-iodine were tested.
compound,measurement,value
[H]/N=C(\N/C(=N/[H])NCCCCCCNC(=N)NC(=N)Nc1ccc(Cl)cc1)Nc1ccc(Cl)cc1 [chlorohexidine],ciliary vibration,decrease of the measured ciliary vibration
